Assay results published in patent US12453349B2, “Compositions comprising pyridine carboxylate herbicides and 4-hydroxyphenyl-pyruvate dioxygenase (HPPD) inhibitor herbicides” (Corteva Agriscience LLC, priority 2018, dated 2025).

Key:
Assay type in all cases: in vivo
[1] = system: DIGSA, Digitaria sanguinalis (large crabgrass); assay: Greenhouse postemergence herbicidal effect, visual injury 20-22 d after application; conditions: Benzobicyclon 50 g ai/ha
Text: (§1) Seeds of the desired test plant species were planted in a 90:10% v/v (volume/volume) mixture of PRO-MIX® BX (Premier Tech Horticulture, Quakertown, PA, USA) and PROFILE® GREENS GRADE™ (Profile Products LLC, Buffalo Grove, IL, USA) planting mixture, which typically has a pH of 5.2 to 6.2 and an organic matter content of at least 50 percent, in plastic pots with a surface area of 103.2 square centimeters (cm^2). In some aspects, to help ensure good germination and healthy plants, a fungicide treatment and/or other chemical or physical treatment was applied. The plants were grown for 7-36 days (d) in a greenhouse with an approximate 14-hour (h) photoperiod which was maintained at about 23° C. during the day and 22° C. during the night. Nutrients and water were added on a regular basis and supplemental lighting was provided with overhead metal halide 1000-Watt lamps as necessary. The plants were employed for testing when they reached the second or third true leaf stage.
(§2) Emulsifiable concentrates of each of each pyridine carboxylate herbicide (Compound A or Compound B) were prepared at 100 grams acid equivalent per liter (g ae/L). The emulsifiable concentrates also included a safener, cloquintocet mexyl, at 120 grams active ingredient per liter (g ai/L). An aliquot of each emulsifiable concentrate was placed in a 25 mL glass vial and diluted with an aqueous mixture of 1.25% (v/v) ACTIROB® B esterified rapeseed oil (Bayer Crop Science, Research Triangle Park, NC, USA) or MSO® Concentrate with LECI-TECH® methylated soybean oil (Loveland Products, Loveland, CO, USA) to obtain concentrated stock solutions at the highest application rate for each herbicide, based upon a 12 milliliter (mL) application volume at a rate of 187 liters per hectare (L/ha). The concentrated stock solutions were further diluted with an aqueous mixture of 1.25% v/v ACTIROB® B or MSO® Concentrate with LECI-TECH® to obtain stock solutions at reduced application rates for each herbicide. Spray solutions of the herbicide combinations (Compound A or Compound B plus HPPD inhibitor herbicide) were prepared by adding weighed amounts or aliquots of the HPPD inhibitor herbicides to the stock solutions of Compound A or Compound B to form 12-mL spray solutions in two-way combinations.
(§3) The spray solutions were applied to the plant material with an overhead Mandel track sprayer equipped with 8002E nozzles calibrated to deliver 187 L/ha over an application area of 0.503 square meters (m^2) at a spray height of 18 inches (43 centimeters (cm)) above the average plant canopy. Control plants were sprayed in the same manner with the solvent blank. All pyridine carboxylate herbicide (component a) application rates are given as “g ae/ha” and all HPPD inhibitor herbicide (component b) application rates are given as “g ai/ha.”
(§4) The treated plants and control plants were placed in a greenhouse as described above and watered by sub-irrigation to prevent wash-off of the test compounds. After 20-22 d, the condition of the test plants as compared with that of the control plants was determined visually and scored on a scale of 0 to 100 percent where 0 corresponds to no injury and 100 corresponds to complete kill.

[2] = system: ECHCG, Echinochloa crus-galli (barnyard grass); assay: as above; conditions: Benzobicyclon 50 g ai/ha
Text: as §1, §2, §3, §4

[3] = system: STEME, Stellaria media (chickweed); assay: as above; conditions: Benzobicyclon 50 g ai/ha
Text: as §1, §2, §3, §4

[4] = system: BRSNN, Brassica napus (spring rape); assay: as above
Text: as §1, §2, §3, §4

[5] = system: LOLMU, Lolium multiflorum (Italian ryegrass); assay: as above; conditions: Benzobicyclon 50 g ai/ha
Text: as §1, §2, §3, §4

[6] = system: SETFA, Setaria faberi (giant foxtail); assay: as above; conditions: Benzobicyclon 50 g ai/ha
Text: as §1, §2, §3, §4

[7] = system: KCHSC, Kochia scoparia (kochia); assay: as above; conditions: Bassia scoparia, post-emergence, read-out: % visual injury Obs
Text: as §1, §2, §3, §4

[8] = system: CIRAR, Cirsium arvense (Canadian thistle); assay: as above
Text: as §1, §2, §3, §4

[9] = system: VIOTR, Viola tricolor (wild pansy); assay: as above
Text: as §1, §2, §3, §4

[10] = system: ABUTH, Abutilon theophrasti (velvetleaf); assay: as above
Text: as §1, §2, §3, §4

[11] = system: POLCO, Polygonum convolvulus (wild buckwheat); assay: as above
Text: as §1, §2, §3, §4

[12] = system: AMARE, Amaranthus retroflexus (pigweed); assay: as above
Text: as §1, §2, §3, §4

[13] = system: IPOHE, Ipomoea hederacea (ivyleaf morningglory); assay: as above; conditions: Isoxaflutole 60 g ai/ha
Text: as §1, §2, §3, §4

[14] = system: HELAN, Helianthus annuus (common sunflower); assay: as above
Text: as §1, §2, §3, §4

[15] = system: EPHHL, Euphorbia heterophylla (poinsettia); assay: as above; conditions: Mesotrione 35 g ai/ha
Text: as §1, §2, §3, §4

[16] = system: CHEAL, Chenopodium album L. (common lambsquarters); assay: as above
Text: as §1, §2, §3, §4

[17] = system: MATCH, Matricaria chamomilla (wild chamomile); assay: as above
Text: as §1, §2, §3, §4

[18] = system: BRSNW, Brassica napus (winter rape); assay: as above
Text: as §1, §2, §3, §4

[19] = system: SINAR, Sinapis arvensis (wild mustard); assay: as above
Text: as §1, §2, §3, §4

[20] = system: SASKR, Salsola kali (Russian thistle); assay: as above
Text: as §1, §2, §3, §4

[21] = system: HORVS, Hordeum vulgare (spring barley); assay: Greenhouse postemergence phytotoxicity on crop, visual injury 20-22 d after application
Text: as §1, §2, §3, §4

[22] = system: TRZAS, Triticum aestivum (spring wheat); assay: as above
Text: as §1, §2, §3, §4

[23] = Mesotrione 35 g ai/ha (Table 8)

CS(=O)(=O)c1ccc(C(=O)C2=C(Sc3ccccc3)C3CCC(C3)C2=O)c(Cl)c1 (stereo not shown) [Benzobicyclon, 3-[2-chloro-4-(methylsulfonyl)benzoyl]-4-(phenylthio)bicyclo[3.2.1]oct-3-en-2-one]
% visual injury Obs [1]: 10%
% visual injury Obs [2]: 0%
% visual injury Obs [3]: 28%
% visual injury Obs ([4]; Benzobicyclon 50 g ai/ha): 8%
% visual injury Obs [5]: 0%
% visual injury Obs [6]: 0%
pest or weed control at 50 g/ha ([7]; KCHSC, Benzobicyclon 50 g ai/ha): 0%

C#CCOC(=O)c1nc(-c2ccc3cc[nH]c3c2F)c(F)c(N)c1Cl [Compound B, propargyl 4-amino-3-chloro-5-fluoro-6-(7-fluoro-1H-indol-6-yl)pyridine-2-carboxylate]
% visual injury Obs ([8]; Compound B 7.5 g ae/ha): 45%
% visual injury Obs ([8]; Compound B 10 g ae/ha): 45%
% visual injury Obs ([9]; Compound B 7.5 g ae/ha): 10%
% visual injury Obs ([9]; Compound B 10 g ae/ha): 40%
% visual injury Obs ([10]; Compound B 7.5 g ae/ha): 68%
% visual injury Obs ([10]; Compound B 10 g ae/ha): 68%

CS(=O)(=O)c1cc(C(F)(F)F)ccc1C(=O)c1cnoc1C1CC1 [Isoxaflutole, (5-cyclopropyl-4-isoxazolyl)[2-(methylsulfonyl)-4-(trifluoromethyl)phenyl]methanone]
% visual injury Obs ([11]; Isoxaflutole 60 g ai/ha): 0%
% visual injury Obs ([12]; Isoxaflutole 60 g ai/ha): 53%
% visual injury Obs [13]: 38%
% visual injury Obs ([8]; Isoxaflutole 60 g ai/ha): 70%
% visual injury Obs ([9]; Isoxaflutole 60 g ai/ha): 25%
% visual injury Obs ([10]; Isoxaflutole 60 g ai/ha): 58%
% visual injury Obs ([14]; Isoxaflutole 60 g ai/ha): 85%
pest or weed control at 60 g/ha ([7]; KCHSC, Isoxaflutole 60 g ai/ha): 38%

CS(=O)(=O)c1ccc(C(=O)C2C(=O)CCCC2=O)c([N+](=O)[O-])c1 [Mesotrione, 2-[4-(methylsulfonyl)-2-nitrobenzoyl]-1,3-cyclohexanedione]
% visual injury Obs ([11]; Mesotrione 35 g ai/ha): 75%
% visual injury Obs ([12]; Mesotrione 35 g ai/ha): 90%
% visual injury Obs ([8]; Mesotrione 35 g ai/ha): 84%
% visual injury Obs [8, 23]: 73%
% visual injury Obs ([9]; Mesotrione 35 g ai/ha): 75%
% visual injury Obs [9, 23]: 78%
% visual injury Obs ([10]; Mesotrione 35 g ai/ha): 99%
% visual injury Obs [10, 23]: 85%
% visual injury Obs ([14]; Mesotrione 35 g ai/ha): 90%
pest or weed control at 35 g/ha ([7]; KCHSC, Mesotrione 35 g ai/ha): 35%
% visual injury Obs [15]: 100%

Cc1ccc(S(=O)(=O)Oc2c(C(=O)c3ccc(Cl)cc3Cl)c(C)nn2C)cc1 [Pyrazolynate, (2,4-dichlorophenyl) [1,3-dimethyl-5-[[(4-methylphenyl)sulfonyl]oxy]-1H-pyrazol-4-yl]methanone]
% visual injury Obs ([11]; Pyrazolynate 225 g ai/ha): 5%
% visual injury Obs ([12]; Pyrazolynate 225 g ai/ha): 10%
% visual injury Obs ([16]; Pyrazolynate 225 g ai/ha): 5%
% visual injury Obs ([8]; Pyrazolynate 225 g ai/ha): 0%
% visual injury Obs ([17]; Pyrazolynate 225 g ai/ha): 0%
% visual injury Obs ([18]; Pyrazolynate 225 g ai/ha): 0%
% visual injury Obs ([19]; Pyrazolynate 225 g ai/ha): 5%
% visual injury Obs ([20]; Pyrazolynate 225 g ai/ha): 0%
pest or weed control at 225 g/ha ([7]; KCHSC, Pyrazolynate 225 g ai/ha): 0%

CS(=O)(=O)c1ccc(C(=O)C2C(=O)CCCC2=O)c(Cl)c1 [Sulcotrione, 2-[2-chloro-4-(methylsulfonyl)benzoyl]-1,3-cyclohexanedione]
% visual injury Obs ([21]; Sulcotrione 75 g ai/ha): 8%
% visual injury Obs ([22]; Sulcotrione 75 g ai/ha): 0%
% visual injury Obs ([4]; Sulcotrione 75 g ai/ha): 75%
pest or weed control at 75 g/ha [7]: 30%

CS(=O)(=O)c1ccc(C(=O)C2C(=O)CCCC2=O)c(Cl)c1COCC(F)(F)F [Tembotrione, 2-[2-chloro-4-(methylsulfonyl)-3-[(2,2,2-trifluoroethoxy)methyl]benzoyl]-1,3-cyclohexanedione]
% visual injury Obs ([11]; Tembotrione 25 g ai/ha): 25%
% visual injury Obs ([12]; Tembotrione 25 g ai/ha): 100%
% visual injury Obs ([16]; Tembotrione 25 g ai/ha): 100%
% visual injury Obs ([8]; Tembotrione 25 g ai/ha): 75%
% visual injury Obs ([17]; Tembotrione 25 g ai/ha): 73%
% visual injury Obs ([18]; Tembotrione 25 g ai/ha): 88%
% visual injury Obs ([19]; Tembotrione 25 g ai/ha): 95%
% visual injury Obs ([20]; Tembotrione 25 g ai/ha): 78%
pest or weed control at 25 g/ha ([7]; KCHSC, Tembotrione 25 g ai/ha): 48%

Cc1c(C(=O)c2cnn(C)c2O)ccc(S(C)(=O)=O)c1C1=NOCC1 [Topramezone, [3-(4,5-dihydro-3-isoxazolyl)-2-methyl-4-(methylsulfonyl)phenyl] (5-hydroxy-1-methyl-1H-pyrazol-4-yl) methanone]
% visual injury Obs ([21]; Topramezone 40 g ai/ha): 38%
% visual injury Obs ([22]; Topramezone 40 g ai/ha): 33%
% visual injury Obs ([11]; Topramezone 40 g ai/ha): 43%
% visual injury Obs ([12]; Topramezone 40 g ai/ha): 100%
% visual injury Obs ([16]; Topramezone 40 g ai/ha): 100%
% visual injury Obs ([8]; Topramezone 40 g ai/ha): 20%
% visual injury Obs ([17]; Topramezone 40 g ai/ha): 30%
% visual injury Obs ([18]; Topramezone 40 g ai/ha): 98%
% visual injury Obs ([19]; Topramezone 40 g ai/ha): 100%
pest or weed control at 40 g/ha [7]: 35%
